Laboratory results from patent publication US20190359645A1, “2'3'-CYCLIC DINUCLEOTIDES COMPRISING CARBOCYCLIC NUCLEOTIDE” (Institute of Organic Chemistry and Biochemistry ASCR, V.V.I., priority 2018, published 2019).
Like-named read-outs stand apart in the source and are kept apart here.

Legend:
[1] = target: T1, AQ STING (G230A-R293Q) (Homo sapiens, UniProt Q86WV6, G230A/H232R/R293Q); experiment: Differential scanning fluorimetry (DSF) with AQ STING; type: binding; conditions: for ΔTm at 150 µM: read-out: DSF ΔTm AQ STING
T1 construct: truncated human WT STING or AQ STING (amino acid residues 140-343); 8xHis (N, cleaved yes); SUMO (N, cleaved yes); made in house; host or cells: E. coli Rosetta-gami B (DE3)
T1 sequence (Q86WV6 140-343 G230A/H232R/R293Q): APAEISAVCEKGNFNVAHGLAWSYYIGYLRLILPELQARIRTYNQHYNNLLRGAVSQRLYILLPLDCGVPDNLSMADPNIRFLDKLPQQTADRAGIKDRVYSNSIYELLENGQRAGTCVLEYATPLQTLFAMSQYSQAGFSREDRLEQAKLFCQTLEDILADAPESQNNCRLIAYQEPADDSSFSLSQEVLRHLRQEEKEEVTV
Source text: (§1) Both WT and AQ human STING (G230A-R^293Q) cDNA were amplified by the use of PCR (Phusion® High-Fidelity DNA Polymerase, cat. # M0530S, NEB, Ipswich, USA) using oligonucleotides hSTING140-BamH-For ([…]) (SEQ ID NO:5) and hSTING379-Not-Rev3 ([…]) (SEQ ID NO:6) from pUNOI-hSTING-WT (cat. # punol-hstingwt, InvivoGen, San Diego, USA) and pUNO1-hSTING-HAQ plasmids (punol-hsting-haq, InvivoGen, San Diego, USA). Purified PCR products were cleaved with restriction enzymes BamHI (cat. # R^0136S, NEB, Ipswich, USA) and NotI (cat. # R^0189S, NEB, Ipswich, USA) and cloned into the pSUMO vector linearized with the identical enzymes. Plasmid pSUMO was created by introducing 8-His-SUMO sequence between NdeI and BamHI sites of pHis-parallel2 plasmid (Clontech, Moutain View, USA). pSUMO-STING WT or pSUMO-STING AQ plasmids thus encoded truncated human WT STING or AQ STING (amino acid residues 140-343) with N-terminal 8×His and SUMO tag.
(§2) The recombinant WT STING and AQ STING proteins were overexpressed in Rosetta-gami B (DE3) competent cells (cat. #71136-3, Merck Millipore, Billerica, USA). Bacterial pellets were re-suspended in ice-cold lysis buffer containing 50 mmol·l^−1 TrisCl (cat. # T1503, Sigma Aldrich, Czech Republic) pH 8.0, 300 mmol·l^−1 NaCl, 3 mmol·l^−1 (3-mercaptoethanol (cat. # M6250, Sigma Aldrich, Czech Republic), 10% glycerol (cat. #G5516, Sigma Aldrich, Czech Republic) and 20 mmol·l^−1 imidazole (cat. #15513, Sigma Aldrich, Czech Republic) using Dounce homogenizer. DNase I (cat. # D5025, Sigma Aldrich, Czech Republic) and RNase A (cat. # R^6513, Sigma Aldrich, Czech Republic) were added (final concentration 50 μg/ml) together with MgCl2 (final concentration 5 mmol·l^−1) to the homogenate and bacteria were lysed using French Press G-M™ High-Pressure Cell Press Homogenizer (1500 psi, 3 cycles). Lysate was spun 30,000 g for 20 minutes and supernatant was gently stirred with Ni-NTA resin (cat. #745400.25 Macherey-Nagel, Duren, Germany) for 30 minutes. The resin was poured into a chromatography column, washed with 50 ml buffer A (50 mmol·l^−1 TrisCl (pH 8.0), 800 mmol·l^−1 NaCl, 3 mmol·l^−1β-mercaptoethanol; 10% glycerol; 20 mmol·l^−1 imidazole) and 8-His-SUMO tagged STING proteins were eluted with 15 ml buffer A containing 300 mmol·l^−1 imidazole. The eluted proteins were cleaved with recombinant SUMO protease (80 pig/ml of protein solution, cat. #12588018, ThermoFisher, Waltham, USA). The proteins were further purified by size exclusion chromatography using HiLoad 16/60 Superdex 75 (cat. #28989333, GE Healthcare Bio-Sciences, Pittsburgh, USA) in 50 mmol·l^−1 Tris C1 buffer pH 7.4 containing 150 mmol·l^−1 NaCl, and 10% glycerol. Proteins were concentrated with Amicon® Ultra-15 10 K device (cat. # UFC901008, Merck Millipore, Billerica, USA) and flash frozen in liquid N2.
(§3) WT and AQ allelic forms of STING protein were diluted to the final concentration 0.1 mg/ml in 100 mmol·l^−1 TrisCl buffer pH 7.4 containing, 150 mmol·l^−1 NaCl, 1:500 SYPRO Orange (cat. # S6650, ThermoFisher, Waltham, USA) and 150 μM CDN or water. 20 μL solutions of the reaction mixtures were pipetted in triplicates into 96 well optical reaction plates and thermal denaturation of samples were performed on real time PCR cycler (LightCycler® 480 Instrument II—Roche, Basel, Switzerland). The first derivative of the thermal denaturation curves was performed to calculate denaturing temperatures of STING-CDN complexes and STING apoproteins. The thermal shift for each CDN was calculated by subtracting the average denaturing temperature of STING apoprotein from the average denaturing temperature of STING CDN complex.

[2] = target: WT STING (Homo sapiens, UniProt Q86WV6, H232R); experiment: Differential scanning fluorimetry (DSF) with WT STING; type: binding; set-up: truncated human WT STING or AQ STING (amino acid residues 140-343); 8xHis (N, cleaved yes); SUMO (N, cleaved yes); made in house; host or cells: E. coli Rosetta-gami B (DE3); conditions: for ΔTm at 150 µM: read-out: DSF ΔTm WT STING
Sequence of WT STING (Q86WV6 140-343 H232R): as the sequence (Q86WV6 140-343 G230A/H232R/R293Q) above, with A91G, Q154R counted along it
Source text: as §1, §2, §3

[3] = thermal shift, truncated human AQ STING 0.1 mg/ml, 150 μM CDN
[4] = thermal shift, truncated human WT STING 0.1 mg/ml, 150 μM CDN

ΔTm at 150 µM [1, 3] [°C] | ΔTm at 150 µM [2, 4] [°C] | Structure (SMILES) | other results
16.5 | 9.3 | Nc1ncnc2c1ncn2[C@@H]1O[C@@H]2COP(=O)(S)O[C@@H]3[C@H](F)[C@@H](COP(=O)(S)O[C@H]2[C@H]1F)C[C@H]3n1cnc2c(=O)[nH]cnc21 (single isomer, unassigned) [Compound 128a] | 
 |  | Nc1ncnc2c1ncn2[C@@H]1O[C@@H]2COP(=O)(S)O[C@@H]3[C@H](F)[C@@H](COP(=O)(S)O[C@H]2[C@H]1F)C[C@H]3n1cnc2c(=O)[nH]cnc21 (single isomer, unassigned) [Compound 128b] | DSF ΔTm AQ STING [1, 3]: 13.8 °C; DSF ΔTm WT STING [2, 4]: 7.9 °C
 |  | Nc1ncnc2c1ncn2[C@@H]1O[C@@H]2COP(=O)(S)O[C@@H]3[C@H](F)[C@@H](COP(=O)(S)O[C@H]2[C@H]1F)C[C@H]3n1cnc2c(=O)[nH]cnc21 (single isomer, unassigned) [Compound 128c] | DSF ΔTm AQ STING [1, 3]: 18.2 °C; DSF ΔTm WT STING [2, 4]: 11.4 °C
 |  | Nc1ncnc2c1ncn2[C@@H]1O[C@@H]2COP(=O)(S)O[C@@H]3[C@H](F)[C@@H](COP(=O)(S)O[C@H]2[C@H]1F)C[C@H]3n1cnc2c(=O)[nH]cnc21 (single isomer, unassigned) [Compound 128d] | DSF ΔTm AQ STING [1, 3]: 21.3 °C; DSF ΔTm WT STING [2, 4]: 13.4 °C
 |  | Nc1nc2c(ncn2[C@@H]2C[C@@H]3COP(=O)(O)OC4C(O)[C@H](n5cnc6c(N)ncnc65)O[C@@H]4COP(O)(=S)OC2C3O)c(=O)[nH]1 (stereo partly drawn) [Compound 101, 2-amino-9-[(6R,8R,15R,17R)-8-(6-amino-9H-purin-9-yl)-3,9,12,18-tetrahydroxy-12-oxo-3-sulfanylidene-2,4,7,11,13-pentaoxa-3λ^5,12λ^5-diphosphatricyclo[13.2.1.0^6,10]octadecan-17-yl]-6,9-dihydro-1H-purin-6-one] | ΔTm at 150 µM [1]: 19.8 °C; ΔTm at 150 µM [2]: 12 °C
19.8 | 13.3 | Nc1nc2c(ncn2[C@@H]2C[C@@H]3COP(=O)(O)OC4C(O)[C@H](n5cnc6c(N)ncnc65)O[C@@H]4COP(=O)(O)OC2C3O)c(=O)[nH]1 (stereo partly drawn) [Compound 102, (6R,8R,15R,17R)-17-(2-amino-6-oxo-6,9-dihydro-1H-purin-9-yl)-8-(6-amino-9H-purin-9-yl)-3,9,12,18-tetrahydroxy-2,4,7,11,13-pentaoxa-3λ^5,12λ^5-diphosphatricyclo[13.2.1.0^6,10]octadecane-3,12-dione] | 
15.2 | 7.9 | Nc1nc2c(ncn2[C@@H]2C[C@@H]3COP(=O)(O)OC4C(O)[C@H](n5cnc6c(N)nc(F)nc65)O[C@@H]4COP(=O)(O)OC2C3O)c(=O)[nH]1 (stereo partly drawn) [Compound 103, (6R,8R,15R,17R)-8-(6-amino-2-fluoro-9H-purin-9-yl)-17-(2-amino-6-oxo-6,9-dihydro-1H-purin-9-yl)-3,9,12,18-tetrahydroxy-2,4,7,11,13-pentaoxa-3λ^5,12λ^5-diphosphatricyclo[13.2.1.0^6,10]octadecane-3,12-dione] | 
13.3 | 5 | Nc1nc2c(ncn2[C@@H]2C[C@@H]3COP(=O)(O)OC4C(O)[C@H](n5cnc6c(=O)[nH]cnc65)O[C@@H]4COP(=O)(O)OC2C3O)c(=O)[nH]1 (stereo partly drawn) [Compound 104, (6R,8R,15R,17R)-17-(2-amino-6-oxo-6,9-dihydro-1H-purin-9-yl)-3,9,12,18-tetrahydroxy-8-(6-oxo-6,9-dihydro-1H-purin-9-yl)-2,4,7,11,13-pentaoxa-3λ^5,12λ^5-diphosphatricyclo[13.2.1.0^6,10]octadecane-3,12-dione] | 
13.2 | 5.2 | Nc1nc(N)c2ncn([C@@H]3O[C@@H]4COP(=O)(O)OC5C(O)[C@@H](COP(=O)(O)OC4C3O)C[C@H]5n3cnc4c(=O)[nH]c(N)nc43)c2n1 (stereo partly drawn) [Compound 105, (6R,8R,15R,17R)-17-(2-amino-6-oxo-6,9-dihydro-1H-purin-9-yl)-8-(2,6-diamino-9H-purin-9-yl)-3,9,12,18-tetrahydroxy-2,4,7,11,13-pentaoxa-3λ^5,12λ^5-diphosphatricyclo[13.2.1.0^6,10]octadecane-3,12-dione] | 
13.8 | 5.5 | Nc1ncc2ncn([C@@H]3O[C@@H]4COP(=O)(O)OC5C(O)[C@@H](COP(=O)(O)OC4C3O)C[C@H]5n3cnc4c(=O)[nH]c(N)nc43)c2n1 (stereo partly drawn) [Compound 106, (6R,8R,15R,17R)-17-(2-amino-6-oxo-6,9-dihydro-1H-purin-9-yl)-8-(2-amino-9H-purin-9-yl)-3,9,12,18-tetrahydroxy-2,4,7,11,13-pentaoxa-3λ^5,12λ^5-diphosphatricyclo[13.2.1.0^6,10]octadecane-3,12-dione] | 
7.9 | 2.2 | Nc1nc2c(ncn2[C@@H]2C[C@@H]3COP(=O)(O)OC4C(O)[C@H](n5cnc6c(S)ncnc65)O[C@@H]4COP(=O)(O)OC2C3O)c(=O)[nH]1 (stereo partly drawn) [Compound 107, (6R,8R,15R,17R)-17-(2-amino-6-oxo-6,9-dihydro-1H-purin-9-yl)-3,9,12,18-tetrahydroxy-8-(6-sulfanyl-9H-purin-9-yl)-2,4,7,11,13-pentaoxa-3λ^5,12λ^5-diphosphatricyclo[13.2.1.0^6,10]octadecane-3,12-dione] | 
12.5 | 6 | CNc1ncnc2c1ncn2[C@@H]1O[C@@H]2COP(=O)(O)OC3C(O)[C@@H](COP(=O)(O)OC2C1O)C[C@H]3n1cnc2c(=O)[nH]c(N)nc21 (stereo partly drawn) [Compound 108, (6R,8R,15R,17R)-17-(2-amino-6-oxo-6,9-dihydro-1H-purin-9-yl)-3,9,12,18-tetrahydroxy-8-[6-(methylamino)-9H-purin-9-yl]-2,4,7,11,13-pentaoxa-3λ^5,12λ^5-diphosphatricyclo[13.2.1.0^6,10]octadecane-3,12-dione] | 
12.8 | 5.6 | Nc1nc2c(ncn2[C@@H]2C[C@@H]3COP(=O)(O)OC4C(N)[C@H](n5cnc6c(N)ncnc65)O[C@@H]4COP(=O)(O)OC2C3O)c(=O)[nH]1 (stereo partly drawn) [Compound 109, (6R,8R,15R,17R)-9-amino-17-(2-amino-6-oxo-6,9-dihydro-1H-purin-9-yl)-8-(6-amino-9H-purin-9-yl)-3,12,18-trihydroxy-2,4,7,11,13-pentaoxa-3λ^5,12λ^5-diphosphatricyclo[13.2.1.0^6,10]octadecane-3,12-dione] | 
